# Data as given in PubChem BioAssay (NCI).
#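 Interpolation was linear, between the two tested concentrations surrounding the appropriate level; five concentrations were tested over 48 hours in 96-well plates. The concentration for 50% growth inhibition is given as GI50. TGI: total growth inhibition.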
# Columns and labels:
# Assay in all cases: growth of human tumour cells (NCI), 48 h
# ACHN renal = test system: ACHN renal
# OVCAR-4 ovarian = test system: OVCAR-4 ovarian
# K-562 leukemia = test system: K-562 leukemia
# A549 NSCLC = test system: A549 NSCLC
# SF-539 CNS = test system: SF-539 CNS
# MCF7 breast = test system: MCF7 breast
# HCC-2998 colon = test system: HCC-2998 colon
# PC-3 prostate = test system: PC-3 prostate
# CCRF-CEM leukemia = test system: CCRF-CEM leukemia
# COLO 205 colon = test system: COLO 205 colon
# SK-MEL-2 melanoma = test system: SK-MEL-2 melanoma
# TK-10 renal = test system: TK-10 renal
# MDA-MB-468 breast = test system: MDA-MB-468 breast
# UACC-257 melanoma = test system: UACC-257 melanoma
# HOP-62 NSCLC = test system: HOP-62 NSCLC
# HT29 colon = test system: HT29 colon
# U251 CNS = test system: U251 CNS
# SF-268 CNS = test system: SF-268 CNS
# IGROV1 ovarian = test system: IGROV1 ovarian
# T-47D breast = test system: T-47D breast
# UACC-62 melanoma = test system: UACC-62 melanoma
# SNB-19 CNS = test system: SNB-19 CNS
# RPMI-8226 leukemia = test system: RPMI-8226 leukemia
# MOLT-4 leukemia = test system: MOLT-4 leukemia
# M14 melanoma = test system: M14 melanoma
# A498 renal = test system: A498 renal
# NCI-H23 lung = test system: NCI-H23 lung
# BT-549 breast = test system: BT-549 breast
# HOP-92 NSCLC = test system: HOP-92 NSCLC
# SK-OV-3 ovarian = test system: SK-OV-3 ovarian
# SF-295 CNS = test system: SF-295 CNS
# HL-60(TB) leukemia = test system: HL-60(TB) leukemia
# SNB-75 CNS = test system: SNB-75 CNS
# SN12C renal = test system: SN12C renal
# SK-MEL-5 melanoma = test system: SK-MEL-5 melanoma
# KM12 colon = test system: KM12 colon
# OVCAR-5 ovarian = test system: OVCAR-5 ovarian
# EKVX NSCLC = test system: EKVX NSCLC
# SK-MEL-28 melanoma = test system: SK-MEL-28 melanoma
# NCI/ADR-RES ovarian = test system: NCI/ADR-RES ovarian
# HCT-116 colon = test system: HCT-116 colon
# OVCAR-8 ovarian = test system: OVCAR-8 ovarian
# SR leukemia = test system: SR leukemia
# CAKI-1 renal = test system: CAKI-1 renal
# OVCAR-3 ovarian = test system: OVCAR-3 ovarian
# 786-0 renal = test system: 786-0 renal
# HCT-15 colon = test system: HCT-15 colon
# NCI-H522 lung = test system: NCI-H522 lung
# MALME-3M melanoma = test system: MALME-3M melanoma
# UO-31 renal = test system: UO-31 renal
# DU-145 prostate = test system: DU-145 prostate
# NCI-H226 lung = test system: NCI-H226 lung
# RXF 393 renal = test system: RXF 393 renal
# NCI-H460 lung = test system: NCI-H460 lung
# MDA-MB-435 = test system: MDA-MB-435
compound,measurement,setting,value
COc1ccc2[nH]c(=O)c(CSc3nccc(-c4ccc(OC)c(OC)c4)n3)cc2c1,GI50,ACHN renal,12.1 µM
same,TGI,ACHN renal,24.4 µM
same,GI50,OVCAR-4 ovarian,16.5 µM
same,TGI,OVCAR-4 ovarian,78.2 µM
same,GI50,K-562 leukemia,7.33 µM
same,TGI,K-562 leukemia,29.6 µM
same,GI50,A549 NSCLC,20.9 µM
same,TGI,A549 NSCLC,91.5 µM
same,GI50,SF-539 CNS,12.3 µM
same,TGI,SF-539 CNS,25.7 µM
same,GI50,MCF7 breast,18.7 µM
same,TGI,MCF7 breast,43 µM
same,GI50,HCC-2998 colon,18.1 µM
same,TGI,HCC-2998 colon,57.6 µM
same,GI50,PC-3 prostate,11.9 µM
same,TGI,PC-3 prostate,25.7 µM
same,GI50,CCRF-CEM leukemia,10.5 µM
same,TGI,CCRF-CEM leukemia,> 100 µM
same,GI50,COLO 205 colon,32.1 µM
same,TGI,COLO 205 colon,> 100 µM
same,GI50,SK-MEL-2 melanoma,15.1 µM
same,TGI,SK-MEL-2 melanoma,51.3 µM
same,GI50,TK-10 renal,13.3 µM
same,TGI,TK-10 renal,33.7 µM
same,GI50,MDA-MB-468 breast,5.84 µM
same,TGI,MDA-MB-468 breast,32.2 µM
same,GI50,UACC-257 melanoma,28.9 µM
same,TGI,UACC-257 melanoma,99.9 µM
same,GI50,HOP-62 NSCLC,18.4 µM
same,TGI,HOP-62 NSCLC,51.3 µM
same,GI50,HT29 colon,17.7 µM
same,TGI,HT29 colon,38.5 µM
same,GI50,U251 CNS,22.4 µM
same,TGI,U251 CNS,> 100 µM
same,GI50,SF-268 CNS,14.7 µM
same,TGI,SF-268 CNS,47.8 µM
same,GI50,IGROV1 ovarian,17.7 µM
same,TGI,IGROV1 ovarian,41.6 µM
same,GI50,T-47D breast,10.9 µM
same,TGI,T-47D breast,67.4 µM
same,GI50,UACC-62 melanoma,15 µM
same,TGI,UACC-62 melanoma,35.3 µM
same,GI50,SNB-19 CNS,14.5 µM
same,TGI,SNB-19 CNS,36 µM
same,GI50,RPMI-8226 leukemia,6.26 µM
same,TGI,RPMI-8226 leukemia,88 µM
same,GI50,MOLT-4 leukemia,9.07 µM
same,TGI,MOLT-4 leukemia,42.9 µM
same,GI50,M14 melanoma,25.5 µM
same,TGI,M14 melanoma,74.4 µM
same,GI50,A498 renal,14.7 µM
same,TGI,A498 renal,37.5 µM
same,GI50,NCI-H23 lung,17.6 µM
same,TGI,NCI-H23 lung,45.4 µM
same,GI50,BT-549 breast,12.5 µM
same,TGI,BT-549 breast,37.1 µM
same,GI50,HOP-92 NSCLC,2.01 µM
same,TGI,HOP-92 NSCLC,8.63 µM
same,GI50,SK-OV-3 ovarian,25.5 µM
same,TGI,SK-OV-3 ovarian,60.7 µM
same,GI50,SF-295 CNS,17.2 µM
same,TGI,SF-295 CNS,43 µM
same,GI50,HL-60(TB) leukemia,35.2 µM
same,TGI,HL-60(TB) leukemia,> 100 µM
same,GI50,SNB-75 CNS,3.43 µM
same,TGI,SNB-75 CNS,25.9 µM
same,GI50,SN12C renal,11.2 µM
same,TGI,SN12C renal,42.7 µM
same,GI50,SK-MEL-5 melanoma,9.51 µM
same,TGI,SK-MEL-5 melanoma,37.4 µM
same,GI50,KM12 colon,21.8 µM
same,TGI,KM12 colon,62.1 µM
same,GI50,OVCAR-5 ovarian,19.1 µM
same,TGI,OVCAR-5 ovarian,53.5 µM
same,GI50,EKVX NSCLC,12.9 µM
same,TGI,EKVX NSCLC,44 µM
same,GI50,SK-MEL-28 melanoma,20.3 µM
same,TGI,SK-MEL-28 melanoma,41.5 µM
same,GI50,NCI/ADR-RES ovarian,14.2 µM
same,TGI,NCI/ADR-RES ovarian,41.2 µM
same,GI50,HCT-116 colon,15.7 µM
same,TGI,HCT-116 colon,49.2 µM
same,GI50,OVCAR-8 ovarian,21 µM
same,TGI,OVCAR-8 ovarian,> 100 µM
same,GI50,SR leukemia,15.9 µM
same,TGI,SR leukemia,> 100 µM
same,GI50,CAKI-1 renal,11 µM
same,TGI,CAKI-1 renal,32.8 µM
same,GI50,OVCAR-3 ovarian,15.2 µM
same,TGI,OVCAR-3 ovarian,37.3 µM
same,GI50,786-0 renal,15.4 µM
same,TGI,786-0 renal,33.8 µM
same,GI50,HCT-15 colon,15.4 µM
same,TGI,HCT-15 colon,46.9 µM
same,GI50,NCI-H522 lung,16.4 µM
same,TGI,NCI-H522 lung,37.3 µM
same,GI50,MALME-3M melanoma,19.5 µM
same,TGI,MALME-3M melanoma,40 µM
same,GI50,UO-31 renal,10.4 µM
same,TGI,UO-31 renal,23.7 µM
same,GI50,DU-145 prostate,14.3 µM
same,TGI,DU-145 prostate,32.4 µM
same,GI50,NCI-H226 lung,12.7 µM
same,TGI,NCI-H226 lung,40.8 µM
same,GI50,RXF 393 renal,6.08 µM
same,TGI,RXF 393 renal,40.1 µM
same,GI50,NCI-H460 lung,17.4 µM
same,TGI,NCI-H460 lung,40.3 µM
same,GI50,MDA-MB-435,23.7 µM
same,TGI,MDA-MB-435,73.8 µM
